ChEMBL document CHEMBL1201862, “PubChem BioAssay data set” (2004)
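Compound exposure: 48 hours, 5 concentrations, 96-well plates. GI50 = concentration required for 50% inhibition of growth.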 Calls of active or inactive are those of the source. No stated cut-off is given here; in the data, active = GI50 up to about 1.1 µM and inactive = higher.

What was measured:
Assay in all cases: growth of human tumour cells (NCI), 48 h
A498 = tested on: A498
A549 = tested on: A549
ACHN = tested on: ACHN
CAKI-1 = tested on: CAKI-1
CCRF-CEM = tested on: CCRF-CEM
COLO 205 = tested on: COLO 205
DLD-1 = tested on: DLD-1
DMS-114 = tested on: DMS-114
DMS-273 = tested on: DMS-273
EKVX = tested on: EKVX
HCC 2998 = tested on: HCC 2998
HCT-116 = tested on: HCT-116
HCT-15 = tested on: HCT-15
HL-60 = tested on: HL-60
HOP-18 = tested on: HOP-18
HOP-92 = tested on: HOP-92
HT-29 = tested on: HT-29
IGROV-1 = tested on: IGROV-1
K562 = tested on: K562
KM12 = tested on: KM12
LOX IMVI = tested on: LOX IMVI
LXFL 529 = tested on: LXFL 529
M14 = tested on: M14
MOLT-4 = tested on: MOLT-4
Malme-3M = tested on: Malme-3M
NCI-H226 = tested on: NCI-H226
NCI-H23 = tested on: NCI-H23
NCI-H460 = tested on: NCI-H460
OVCAR-4 = tested on: OVCAR-4
OVCAR-5 = tested on: OVCAR-5
OVCAR-8 = tested on: OVCAR-8
RPMI-8226 = tested on: RPMI-8226
RXF 393 = tested on: RXF 393
RXF 631 = tested on: RXF 631
SF-268 = tested on: SF-268
SF-295 = tested on: SF-295
SF-539 = tested on: SF-539
SK-MEL-28 = tested on: SK-MEL-28
SK-MEL-2 = tested on: SK-MEL-2
SK-MEL-5 = tested on: SK-MEL-5
SN12C = tested on: SN12C
SNB-19 = tested on: SNB-19
SNB-75 = tested on: SNB-75
SNB-78 = tested on: SNB-78
SR = tested on: SR
SW-620 = tested on: SW-620
TK-10 = tested on: TK-10
U-251 = tested on: U-251
UACC-257 = tested on: UACC-257
XF498 = tested on: XF498
786-0 = tested on: 786-0
HOP-62 = tested on: HOP-62
KM-20L2 = tested on: KM-20L2
M19-MEL = tested on: M19-MEL
NCI-H522 = tested on: NCI-H522
OVCAR-3 = tested on: OVCAR-3
SK-OV-3 = tested on: SK-OV-3
UACC-62 = tested on: UACC-62
UO-31 = tested on: UO-31

Measured: GI50

CC1C[C@]2(C[C@@H](C)C(=O)O2)OC2CC3(C)C4CCC5C(C)(C)OC(=O)CC[C@@]56C[C@@]46CC[C@]3(C)C12 (stereo not given in full)
inactive: A498 > 100 µM | A549 > 100 µM | ACHN > 100 µM | CAKI-1 > 100 µM | CCRF-CEM > 100 µM | COLO 205 > 100 µM | DLD-1 > 100 µM | DMS-114 > 100 µM | DMS-273 > 100 µM | EKVX > 100 µM | HCC 2998 > 100 µM | HCT-116 > 100 µM | HL-60 69.8 µM | HOP-18 > 100 µM | HOP-92 > 100 µM | HT-29 > 100 µM | IGROV-1 > 100 µM | K562 64.9 µM | KM12 > 100 µM | LOX IMVI > 100 µM | LXFL 529 > 100 µM | M14 > 100 µM | MOLT-4 > 100 µM | Malme-3M > 100 µM | NCI-H226 > 100 µM | NCI-H23 > 100 µM | NCI-H460 > 100 µM | OVCAR-4 > 100 µM | OVCAR-5 > 100 µM | OVCAR-8 > 100 µM | RPMI-8226 > 100 µM | RXF 393 > 100 µM | RXF 631 > 100 µM | SF-268 > 100 µM | SF-295 > 100 µM | SF-539 > 100 µM | SK-MEL-28 > 100 µM | SK-MEL-2 > 100 µM | SK-MEL-5 > 100 µM | SN12C > 100 µM | SNB-19 > 100 µM | SNB-75 > 100 µM | SNB-78 > 100 µM | SR > 100 µM | SW-620 > 100 µM | TK-10 > 100 µM | U-251 > 100 µM | UACC-257 > 100 µM | XF498 > 100 µM
> 100 µM: HCT-15

CC(/C=C1\CCC(CN(C)C)C1=O)c1cccc(Br)c1 (stereo not given)
14.9 µM: HCT-15
inactive: 786-0 3.41 µM | A498 26.5 µM | A549 31.3 µM | ACHN 13.4 µM | CAKI-1 8.15 µM | CCRF-CEM 2.52 µM | COLO 205 17.9 µM | DLD-1 9.57 µM | DMS-114 19.7 µM | EKVX 20.9 µM | HCC 2998 20.4 µM | HCT-116 8.59 µM | HL-60 3.06 µM | HOP-18 18.7 µM | HOP-62 22.7 µM | HOP-92 18.2 µM | HT-29 15.1 µM | IGROV-1 13.8 µM | K562 2.77 µM | KM-20L2 21.4 µM | KM12 10.1 µM | LXFL 529 5.62 µM | M14 14.9 µM | M19-MEL 20.7 µM | MOLT-4 3.85 µM | Malme-3M 17.8 µM | NCI-H226 22.3 µM | NCI-H23 19.5 µM | NCI-H460 29.6 µM | NCI-H522 8.05 µM | OVCAR-3 17 µM | OVCAR-4 17 µM | OVCAR-5 22.8 µM | OVCAR-8 18.2 µM | RPMI-8226 2 µM | RXF 393 13.3 µM | RXF 631 7.91 µM | SF-268 21.7 µM | SF-295 22.2 µM | SF-539 18 µM | SK-MEL-28 17 µM | SK-MEL-2 16.7 µM | SK-MEL-5 13.8 µM | SK-OV-3 65.2 µM | SN12C 22 µM | SNB-19 26 µM | SNB-78 16.4 µM | SW-620 8.18 µM | TK-10 15.7 µM | U-251 18.2 µM | UACC-257 17.3 µM | UACC-62 17.3 µM | UO-31 19.1 µM | XF498 20.6 µM
